# Reference: patent US20250263644A1, “COMPOSITIONS COMPRISING YEAST CELLS AND POLYPHENOLS AND THEIR USE” (INSTITUT NATIONAL D'ETUDES SUPERIEURES AGRONOMIQUES DE …, priority 2015, published 2025)
# Columns and labels:
# yeast cells [1] = experiment: Adsorption isotherms: polyphenols adsorbed by yeast; assay type: binding, Saccharomyces cerevisiae; conditions: 24 h contact in model wine, 10^8 cells/mL, A280 of supernatant; FIG. 7a
# Protocol: A contact time of 24 h was chosen for adsorption experiments. A stock solution of polyphenols with a molecular weight below 620 Da was prepared by dissolving catechin powder in a model wine at a concentration of 10 g/L. A stock solution of polyphenols with a molecular weight above 620 Da was prepared by dissolving grape skin tannins with a DPm of 20 in a model wine at a concentration of 10 g/L
# Dilutions of both stock solutions were performed to get a final concentration range between 0.01 and 5 g/L. All sorption experiments were carried out by mixing equal volumes of a 2×g·L^−1 polyphenol solution (x being the final desired polyphenol concentration) and of a 2·10^8 cells/mL suspension (final concentration 10^8 cells/mL). Samples (2 ml) were placed in a 2 mL tightly closed Eppendorf in order to minimize headspace and were stirred continuously (Stuart rotator SB3, 40 rpm) in absence of light and at room temperature. […] The total polyphenol concentrations in the bulk were determined by absorbency measurements at 280 nm after adequate dilution. Total encapsulated polyphenol with a molecular weight below 620 Da and total encapsulated polyphenols with a molecular weight above 620 Da were calculated from the difference in absorbency between the samples and the corresponding controls using: […]
# yeast cells [2] = experiment: Evaluation of the reversibility of polyphenol adsorption; assay type: binding, Saccharomyces cerevisiae; conditions: pellets re-suspended in model wine without polyphenols, 24 h; FIG. 7b
# Protocol: The yeast pellets obtained by centrifugation after adsorption above were re-suspended in 2 ml of a model wine without polyphenols. Samples were stirred for 24 h and the supernatants recovered. The adsorption reversibility was evaluated through the quantity of polyphenols recovered in supernatants.
substance,measurement,setting,value
catechin,"amounts of polyphenols adsorbed by yeast, compared with DPm 20",yeast cells [1],about 10 times lower
same,reversibility of interactions between yeast and adsorbed polyphenols,yeast cells [2],fully reversible
